Laboratory results taken from the supplement of paper PMC10307832.

Columns and labels:
Assay in all cases: relative viability (nuclei count vs DMSO), 5 days (fraction); higher = more cells survive
[1] = compound: CCCS(=O)(=O)Nc1ccc(F)c(C(=O)c2c[nH]c3ncc(-c4ccc(Cl)cc4)cc23)c1F [Vemurafenib] + CS(=O)(=O)N1CCN(Cc2cc3nc(-c4cccc5[nH]ncc45)nc(N4CCOCC4)c3s2)CC1 [Pictilisib] (partner 1 µM)
Procedure, shortened: (§1)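 One day after seeding in 1536-well plates, lung cancer cell lines were dosed by pin tool. Dosing was either single-drug or a fixed anchor-drug dose plus five library-drug doses (not always all listed) in √10 steps. After 5 days, nuclei were stained in one fix-and-stain step and counted on 4× images, and relative viability is the nuclei count of treated wells over that of vehicle wells, given as the median of duplicate plates.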

[2] = compound: CCCS(=O)(=O)Nc1ccc(F)c(C(=O)c2c[nH]c3ncc(-c4ccc(Cl)cc4)cc23)c1F [Vemurafenib] + C[C@]1(O)C[C@@H](c2nc(-c3ccc4ccc(-c5ccccc5)nc4c3)c3c(N)nccn32)C1 [Linsitinib] (partner 1 µM)
Procedure, shortened: as §1

[3] = compound: Cc1nc(NC(=O)N2CCC[C@H]2C(N)=O)sc1-c1ccnc(C(C)(C)C(F)(F)F)c1 [Alpelisib] + COc1cccc2cc(-c3nc([C@H]4CC[C@H](C(=O)O)CC4)n4ncnc(N)c34)[nH]c12 [OSI-027] (partner 0.5 µM)
Procedure, shortened: as §1

[4] = compound: Cc1nc(NC(=O)N2CCC[C@H]2C(N)=O)sc1-c1ccnc(C(C)(C)C(F)(F)F)c1 [Alpelisib] + N=C(N)NC(=N)NCCc1ccccc1 [Phenformin] (partner 250 µM)
Procedure, shortened: as §1

| Cell Line | relative viability ([1]; first compound 0.03162 µM) | relative viability ([1]; first compound 0.1 µM) | relative viability ([1]; first compound 0.3162 µM) | relative viability ([1]; first compound 1 µM) | relative viability ([2]; first compound 0.03162 µM) | relative viability ([2]; first compound 0.1 µM) | relative viability ([2]; first compound 0.3162 µM) | relative viability ([2]; first compound 1 µM) | relative viability ([3]; first compound 0.04 µM) | relative viability ([3]; first compound 0.1265 µM) | relative viability ([3]; first compound 0.4 µM) | relative viability ([3]; first compound 1.265 µM) | relative viability ([3]; first compound 4 µM) | relative viability ([4]; first compound 0.04 µM) | relative viability ([4]; first compound 0.1265 µM) | relative viability ([4]; first compound 0.4 µM) | relative viability ([4]; first compound 1.265 µM) | relative viability ([4]; first compound 4 µM) |
| --- | --- | --- | --- | --- | --- | --- | --- | --- | --- | --- | --- | --- | --- | --- | --- | --- | --- | --- |
| NCI-H2085 | 0.421 | 0.458 | 0.664 | 0.416 | 0.862 | 0.626 | 0.797 | 1.01 | 0.826 | 0.658 | 0.709 | 0.585 | 0.574 | 0.73 | 0.631 | 0.782 | 0.698 | 0.621 |
| EPLC-272H | 0.277 | 0.278 | 0.295 | 0.336 | 1.03 | 0.824 | 1.14 | 1.11 | 0.214 | 0.268 | 0.274 | 0.23 | 0.195 | 0.303 | 0.267 | 0.351 | 0.279 | 0.244 |
| HARA | 0.41 | – | 0.459 | 0.486 | 0.942 | – | 0.987 | 0.771 | 0.396 | 0.287 | 0.48 | 0.255 | 0.164 | 0.48 | 0.451 | 0.555 | 0.331 | 0.301 |
| LU99A | 0.282 | 0.311 | 0.297 | 0.286 | 0.484 | 0.445 | 0.586 | 0.479 | 0.306 | 0.3 | 0.296 | 0.234 | 0.224 | 0.883 | 0.843 | 0.856 | 0.709 | 0.657 |
| NCI-H2087 | 0.728 | 0.816 | – | 0.802 | 0.882 | 0.94 | – | 0.868 | 0.503 | 0.484 | 0.482 | 0.342 | 0.336 | 0.491 | 0.483 | 0.501 | 0.36 | 0.284 |
| NCI-H1734 | 0.452 | 0.545 | 0.432 | 0.367 | 0.859 | 0.847 | 0.759 | 0.808 | 0.513 | – | 0.455 | 0.278 | 0.201 | 0.376 | – | 0.349 | 0.275 | 0.23 |
| HCC-44 | 0.443 | 0.5 | 0.478 | 0.646 | 0.612 | 0.67 | 0.709 | 0.716 | 0.519 | 0.419 | 0.541 | 0.307 | 0.451 | 0.248 | 0.174 | 0.187 | 0.141 | 0.161 |
| PC-3 [JPC-3] | 0.649 | – | 0.857 | 0.82 | 0.909 | – | 1.02 | 1.03 | 0.831 | 0.642 | 0.68 | 0.593 | 0.488 | 0.502 | 0.496 | 0.503 | 0.454 | 0.463 |
| ABC-1 | 0.751 | 0.536 | 0.658 | 0.753 | 0.711 | 0.753 | 0.942 | 0.853 | 0.475 | 0.347 | 0.418 | 0.283 | 0.356 | 0.256 | 0.252 | 0.211 | 0.233 | 0.222 |
| NCI-H1651 | 0.523 | 0.6 | 0.665 | 0.527 | 0.869 | 1.09 | 1.02 | 1.09 | 0.638 | 0.688 | 0.646 | 0.569 | 0.473 | 0.369 | 0.3 | 0.33 | 0.295 | 0.275 |
| NCI-H1563 | 0.666 | 0.621 | 0.584 | 0.647 | 1.2 | 1.11 | 1.3 | 1.25 | 0.743 | 0.774 | 0.7 | 0.584 | 0.541 | 0.637 | 0.698 | 0.64 | 0.604 | 0.589 |
| NCI-H460 | 0.332 | 0.438 | 0.271 | 0.296 | 0.677 | 0.839 | 0.879 | 0.777 | 0.545 | 0.623 | 0.534 | 0.242 | 0.137 | 0.484 | 0.526 | 0.554 | 0.447 | 0.142 |
| NCI-H2228 | 0.32 | 0.362 | 0.684 | 0.358 | 0.819 | 0.587 | 0.773 | 0.587 | 0.612 | 0.53 | 0.385 | 0.239 | 0.152 | 0.363 | 0.284 | 0.306 | 0.171 | 0.175 |
| LOU-NH91 | 0.535 | 0.459 | – | 0.525 | 0.864 | 0.535 | – | 1.01 | 0.754 | 0.601 | 0.638 | 0.543 | 0.49 | 0.668 | 0.58 | 0.648 | 0.525 | 0.472 |
| RERF-LC-KJ | 0.838 | 0.464 | 0.707 | 0.597 | 0.833 | 0.86 | 0.924 | 0.923 | 0.482 | 0.547 | 0.507 | 0.393 | 0.347 | 0.427 | 0.394 | 0.433 | 0.345 | 0.33 |
| EKVX | 0.446 | – | 0.501 | 0.451 | 0.942 | – | 1.03 | 1.02 | 0.594 | 0.531 | 0.773 | 0.496 | 0.356 | 0.234 | 0.229 | 0.253 | 0.225 | 0.192 |
| NCI-H441 | 0.44 | 0.402 | 0.544 | 0.35 | 0.555 | 0.527 | 0.491 | 0.345 | 0.656 | 0.64 | 0.643 | 0.296 | 0.305 | 0.955 | 0.749 | 0.832 | 0.469 | 0.45 |
| NCI-H1395 | 0.672 | 0.613 | – | 0.521 | 0.948 | 1.02 | – | 1.13 | 0.593 | 0.558 | 0.717 | 0.588 | 0.634 | 0.458 | 0.395 | 0.46 | 0.374 | 0.434 |
